Experimental data taken from US10344025B2, “GLS1 inhibitors for treating disease” (Board of Regents, The University of Texas System, priority 2014, dated 2019).
pEC50, pIC50: −log10 of the molar value.

Tests used:
[1] = biological target: purified recombinant human GAC (GLS1) (Homo sapiens (Human), UniProt O94925); assay: GLS1 Enzymatic Activity Assay (dual-coupled enzymatic assay, resorufin/Amplex UltraRed readout); assay type: biochemical;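 further: glutamate from GAC coupled via glutamate oxidase and peroxidase to resorufin, read as fluorescence (ex 530, em 590 nm) kinetically or at 20 min, four-parameter logistic IC50 fit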
[2] = tested on: A549 cells; assay: Proliferation Assay (A549 viability, Cell Titer Fluor, 72 hours); assay type: cell-based; conditions: Homo sapiens, A549, 72 h
Method in brief: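 A549 cells seeded at 1000 cells/well, rested 24 h, then exposed to compound in 0.5% DMSO for 72 h at 37 °C. Viability read by Cell Titer Fluor fluorescence; IC50 from four-parameter logistic fit.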

Chain of purified recombinant human GAC (GLS1) (O94925 other isoform, or with tags, fused parts or gaps): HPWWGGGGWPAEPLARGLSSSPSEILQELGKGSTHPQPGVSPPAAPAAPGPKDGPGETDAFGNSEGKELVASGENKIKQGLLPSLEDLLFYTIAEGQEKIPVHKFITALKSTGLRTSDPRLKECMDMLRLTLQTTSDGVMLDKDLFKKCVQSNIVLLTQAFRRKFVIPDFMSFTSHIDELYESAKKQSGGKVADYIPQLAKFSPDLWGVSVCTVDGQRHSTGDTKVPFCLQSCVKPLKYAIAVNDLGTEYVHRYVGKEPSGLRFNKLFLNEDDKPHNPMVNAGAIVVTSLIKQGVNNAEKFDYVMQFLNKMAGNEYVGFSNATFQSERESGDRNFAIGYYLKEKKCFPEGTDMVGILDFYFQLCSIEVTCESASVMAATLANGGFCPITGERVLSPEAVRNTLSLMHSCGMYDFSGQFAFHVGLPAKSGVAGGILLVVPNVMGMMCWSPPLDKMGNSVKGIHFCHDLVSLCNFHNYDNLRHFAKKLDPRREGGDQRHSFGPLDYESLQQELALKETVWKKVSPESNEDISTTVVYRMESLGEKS

pIC50 [1] | pEC50 [2] | SMILES
> 7.00 | 6.30 to 7.00 | O=C(Cc1cc(OC(F)(F)F)ccc1F)Nc1ccc(CCCCc2nnc(C(=O)NCCO)s2)nn1 [Example 597, 5-(4-(6-(2-(2-fluoro-5-(trifluoromethoxy)phenyl)acetamido)pyridazin-3-yl)butyl)-N-(2-hydroxyethyl)-1,3,4-thiadiazole-2-carboxamide]
> 7.00 | > 7.00 | CNC(=O)c1nnc(CCCCc2ccc(NC(=O)Cc3cc(OC(F)(F)F)ccc3F)nn2)s1 [Example 598, 5-(4-(6-(2-(2-fluoro-5-(trifluoromethoxy)phenyl)acetamido)pyridazin-3-yl)butyl)-N-methyl-1,3,4-thiadiazole-2-carboxamide]
> 7.00 | > 7.00 | CC(=O)Nc1ccc(CCCCc2nnc(C(=O)NCc3cccc(OC(F)(F)F)c3)s2)nn1 [Example 599, 5-(4-(6-acetamidopyridazin-3-yl)butyl)-N-(3-(trifluoromethoxy)benzyl)-1,3,4-thiadiazole-2-carboxamide]
> 7.00 | > 7.00 | CC(=O)Nc1ccc(CCCCc2nnc(C(=O)NCc3cc(OC(F)(F)F)ccc3F)s2)nn1 [Example 600, 5-(4-(6-acetamidopyridazin-3-yl)butyl)-N-(2-fluoro-5-(trifluoromethoxy)benzyl)-1,3,4-thiadiazole-2-carboxamide]
> 7.00 | > 7.00 | CC(=O)Nc1ccc(CCCCc2nnc(C(=O)NCc3cc(C(F)(F)F)ccn3)s2)nn1 [Example 601, 5-(4-(6-acetamidopyridazin-3-yl)butyl)-N-((4-(trifluoromethyl)pyridin-2-yl)methyl)-1,3,4-thiadiazole-2-carboxamide]
> 7.00 | > 7.00 | CC(=O)Nc1ccc(CCCCc2nnc(C(=O)NCc3cncc(C(F)(F)F)c3)s2)nn1 [Example 602, 5-(4-(6-acetamidopyridazin-3-yl)butyl)-N-((5-(trifluoromethyl)pyridin-3-yl)methyl)-1,3,4-thiadiazole-2-carboxamide]
> 7.00 | > 7.00 | CNC(=O)c1cn(CCCCc2ccc(NC(=O)Cc3cn(-c4cccc(OC(F)(F)F)c4)cn3)nn2)nn1 [Example 604, N-methyl-1-(4-(6-(2-(1-(3-(trifluoromethoxy)phenyl)-1H-imidazol-4-yl)acetamido)pyridazin-3-yl)butyl)-1H-1,2,3-triazole-4-carboxamide]

The remaining lines, values behind:

SMILES | pIC50 [1] | pEC50 [2]
O=C(Cc1cccc(F)n1)Nc1nnc(CCC(F)Cn2cc(C(=O)NCc3cc(OC(F)(F)F)ccc3F)nn2)s1 (stereo not shown) [Example 592, 1-(2-fluoro-4-(5-(2-(6-fluoropyridin-2-yl)acetamido)-1,3,4-thiadiazol-2-yl)butyl)-N-(2-fluoro-5-(trifluoromethoxy)benzyl)-1H-1,2,3-triazole-4-carboxamide] | > 7.00 | > 7.00
O=C(Cc1cncs1)Nc1nnc(CCC(F)Cn2cc(C(=O)NCc3cc(OC(F)(F)F)ccc3F)nn2)s1 (stereo not shown) [Example 593, 1-(2-fluoro-4-(5-(2-(thiazol-5-yl)acetamido)-1,3,4-thiadiazol-2-yl)butyl)-N-(2-fluoro-5-(trifluoromethoxy)benzyl)-1H-1,2,3-triazole-4-carboxamide] | > 7.00 | > 7.00
O=C(Nc1nnc(CCC(F)Cn2cc(C(=O)NCc3cc(OC(F)(F)F)ccc3F)nn2)s1)c1ccncc1 (stereo not shown) [Example 594, N-(5-(3-fluoro-4-(4-((2-fluoro-5-(trifluoromethoxy)benzyl)carbamoyl)-1H-1,2,3-triazol-1-yl)butyl)-1,3,4-thiadiazol-2-yl)isonicotinamide] | > 7.00 | 5.30 to 6.30
O=C(NCc1cc(OC(F)(F)F)ccc1F)c1cn(CC(F)CCc2nnc(NC(=O)c3ccccn3)s2)nn1 (stereo not shown) [Example 595, N-(5-(3-fluoro-4-(4-((2-fluoro-5-(trifluoromethoxy)benzyl)carbamoyl)-1H-1,2,3-triazol-1-yl)butyl)-1,3,4-thiadiazol-2-yl)picolinamide] | > 7.00 | > 7.00
NC(=O)c1cn(CCCCc2ccc(NC(=O)Cc3cccc(OC(F)(F)F)c3)nn2)nn1 [Example 596, 1-(4-(6-(2-(3-(trifluoromethoxy)phenyl)acetamido)pyridazin-3-yl)butyl)-1H-1,2,3-triazole-4-carboxamide] | > 7.00 | 6.30 to 7.00
CNC(=O)c1nnc(CCCCn2cc(C(=O)NCc3cc(C(F)(F)F)ccn3)nn2)s1 [Example 603, N-methyl-5-(4-(4-(((4-(trifluoromethyl)pyridin-2-yl)methyl)carbamoyl)-1H-1,2,3-triazol-1-yl)butyl)-1,3,4-thiadiazole-2-carboxamide] | 5.30 to 6.30 | < 5.30
CNC(=O)c1cn(CCCCc2ccc(NC(=O)Cc3cc(-c4ccccc4C(F)(F)F)ccn3)nn2)nn1 [Example 605, N-methyl-1-(4-(6-(2-(4-(2-(trifluoromethyl)phenyl)pyridin-2-yl)acetamido)pyridazin-3-yl)butyl)-1H-1,2,3-triazole-4-carboxamide] | > 7.00 | > 7.00
